For one molecule, Ki results are on record in BindingDB's records for doi:10.1124/jpet.104.067884 (Sanofi-Synthelabo Recherche, 2004).

One test deals with Cannabinoid receptor 1 (Homo sapiens, UniProt P21554).
In another test the target is Cannabinoid receptor 2 (Homo sapiens, UniProt P34972).
Sequence of Cannabinoid receptor 2 (P34972 whole entry): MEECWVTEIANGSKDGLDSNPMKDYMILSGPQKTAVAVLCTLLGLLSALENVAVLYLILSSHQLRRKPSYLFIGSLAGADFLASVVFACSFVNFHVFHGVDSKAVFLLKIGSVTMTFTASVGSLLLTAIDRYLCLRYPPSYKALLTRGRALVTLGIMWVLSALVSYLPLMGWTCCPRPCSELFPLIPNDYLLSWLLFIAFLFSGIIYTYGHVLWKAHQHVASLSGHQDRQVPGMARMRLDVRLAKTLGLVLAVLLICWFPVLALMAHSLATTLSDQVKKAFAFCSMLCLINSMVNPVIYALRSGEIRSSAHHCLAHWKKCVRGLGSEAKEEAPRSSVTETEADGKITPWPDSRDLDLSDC

Sequence of Cannabinoid receptor 1 (P21554 whole entry): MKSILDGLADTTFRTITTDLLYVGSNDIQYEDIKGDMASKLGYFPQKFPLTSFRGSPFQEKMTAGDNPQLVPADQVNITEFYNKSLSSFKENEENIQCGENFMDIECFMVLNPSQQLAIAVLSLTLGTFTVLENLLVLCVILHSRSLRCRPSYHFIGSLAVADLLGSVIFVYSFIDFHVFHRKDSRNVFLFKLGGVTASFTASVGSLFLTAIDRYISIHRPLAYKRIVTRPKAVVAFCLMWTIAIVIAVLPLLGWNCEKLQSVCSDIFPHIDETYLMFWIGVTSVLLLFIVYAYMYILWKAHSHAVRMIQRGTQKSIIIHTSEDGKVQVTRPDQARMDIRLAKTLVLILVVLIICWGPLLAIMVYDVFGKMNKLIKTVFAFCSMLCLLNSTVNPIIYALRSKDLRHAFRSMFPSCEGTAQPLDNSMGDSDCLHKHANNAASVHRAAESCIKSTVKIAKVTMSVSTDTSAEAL

Consider `CCc1c(C(=O)NN2CCCCC2)nn(-c2ccc(Cl)cc2Cl)c1-c1ccc(Br)cc1` [SR 147778], for which the values for the Ki at Cannabinoid receptor 1 and on Cannabinoid receptor 2 were 3.5 nM and 442 nM, respectively.

By Ki is commonly meant a measure of affinity in units of concentration, obtained from inhibition or displacement.
